Measured values published in patent publication US12384776B2, “Compounds and uses thereof” (Foghorn Therapeutics Inc., priority 2019, dated 2025).

Molecular target: Nanoluciferase-BRD9 fusion protein (3×FLAG-NLuc-BRD9) in SYO-1 cells (Homo sapiens (Human), UniProt Q9H8M2)
Assay: SYO1 BRD9 NanoLuc degradation assay
Type: cell-based
Summary of the method: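 Stable SYO-1 line expressing 3×FLAG-NLuc-BRD9, treated with 10-point 3-fold dilutions (top 1 μM final) for 6 hours. Nanoluciferase luminescence read with Nano-Glo reagent. % inhibition relative to DMSO (high control) and 1 μM reference BRD9 degrader (low control).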

[1] = SYO-1 cells expressing 3×FLAG-NLuc-BRD9, 6 hours incubation, top dose 1 μM

Sequence of Nanoluciferase-BRD9 fusion protein (3×FLAG-NLuc-BRD9) in SYO-1 cells (Q9H8M2 whole entry, the tested form may be a part): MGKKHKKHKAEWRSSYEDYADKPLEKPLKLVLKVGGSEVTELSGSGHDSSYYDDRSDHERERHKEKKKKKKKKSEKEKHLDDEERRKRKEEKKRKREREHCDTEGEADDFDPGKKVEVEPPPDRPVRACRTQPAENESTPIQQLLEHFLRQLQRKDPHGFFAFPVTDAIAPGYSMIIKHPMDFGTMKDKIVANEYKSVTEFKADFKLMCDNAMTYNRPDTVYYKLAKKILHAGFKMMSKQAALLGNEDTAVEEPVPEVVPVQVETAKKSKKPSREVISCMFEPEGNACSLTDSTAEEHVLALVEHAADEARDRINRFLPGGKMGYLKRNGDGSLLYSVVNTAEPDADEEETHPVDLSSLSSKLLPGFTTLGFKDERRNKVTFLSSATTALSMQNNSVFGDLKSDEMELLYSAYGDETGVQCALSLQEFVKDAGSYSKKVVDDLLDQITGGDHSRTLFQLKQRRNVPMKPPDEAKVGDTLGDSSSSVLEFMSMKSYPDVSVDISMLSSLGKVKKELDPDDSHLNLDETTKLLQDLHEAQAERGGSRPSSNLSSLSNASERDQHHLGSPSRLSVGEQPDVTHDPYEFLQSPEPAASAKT

Compound	IC50 [1] [nM]	IC50 (SYO-1 cells, 6 hours, Table 6C) [nM]	further results
CNC(=O)N1CCc2c(-c3cc(OC)c(CN4CC(S(=O)(=O)NCCCOc5cccc6c5C(=O)N(C5CCC(=O)NC5=O)C6=O)C4)c(OC)c3)cn(C)c(=O)c2C1 (stereo not drawn) [Compound D280]	100 to 1000	–	–
CNC(=O)N1CCc2c(-c3cc(OC)c(CN4CC(S(=O)(=O)NCCCCOc5cccc6c5C(=O)N(C5CCC(=O)NC5=O)C6=O)C4)c(OC)c3)cn(C)c(=O)c2C1 (stereo not drawn) [Compound D281]	10 to 100	–	–
CNC(=O)N1CCc2c(-c3cc(OC)c(CN4CC(S(=O)(=O)NCCOc5cccc6c5C(=O)N(C5CCC(=O)NC5=O)C6=O)C4)c(OC)c3)cn(C)c(=O)c2C1 (stereo not drawn) [Compound D282]	100 to 1000	–	–
CNC(=O)N1CCc2c(-c3cc(OC)c(CN(C)C45CC(C(=O)NCCCCCOc6cccc7c6C(=O)N(C6CCC(=O)NC6=O)C7=O)(C4)C5)c(OC)c3)cn(C)c(=O)c2C1 (stereo not drawn) [Compound D283]	< 10	–	–
CNC(=O)N1CCc2c(-c3cc(OC)c(CN(C)CCOCCN4CCN(c5ccc6c(c5)C(=O)N(C5CCC(=O)NC5=O)C6=O)CC4)c(OC)c3)cn(C)c(=O)c2C1 (stereo not drawn) [Compound D284]	10 to 100	–	–
CNC(=O)N1CCc2c(-c3cc(OC)c(CN(C)CC45CC(C(=O)NCCCCCOc6ccc7c(c6)C(=O)N(C6CCC(=O)NC6=O)C7=O)(C4)C5)c(OC)c3)cn(C)c(=O)c2C1 (stereo not drawn) [Compound D286]	100 to 1000	–	–
CNC(=O)N1CCc2c(-c3cc(OC)c(CN4CC(S(=O)(=O)NCCN5CCN(c6ccc7c(c6)C(=O)N(C6CCC(=O)NC6=O)C7=O)CC5)C4)c(OC)c3)cn(C)c(=O)c2C1 (stereo not drawn) [Compound D287]	100 to 1000	–	–
CNC(=O)N1CCc2c(-c3cc(OC)c(CN(C)CC45CC(C(=O)NCCCCCOc6cccc7c6C(=O)N(C6CCC(=O)NC6=O)C7=O)(C4)C5)c(OC)c3)cn(C)c(=O)c2C1 (stereo not drawn) [Compound D288]	100 to 1000	–	–
CNC(=O)N1CCc2c(-c3cc(OC)c(CN4CC5CN(C(=O)CCOCCOc6ccc7c(c6)C(=O)N(C6CCC(=O)NC6=O)C7=O)CCC54)c(OC)c3)cn(C)c(=O)c2C1 (stereo not drawn) [Compound D289]	10 to 100	–	–
COc1cc(-c2cn(C)c(=O)c3c2CCN(C(=O)NCCN(C)CCNC(=O)COc2ccc4c(c2)CN(C2CCC(=O)NC2=O)C4=O)C3)cc(OC)c1CN(C)C (stereo not drawn) [Compound D290]	≥ 1000	–	–
COc1cc(-c2cn(C)c(=O)c3c2CCN(C(=O)NCCCCCCCCNc2cccc4nc(C)n(C5CCC(=O)NC5=O)c(=O)c24)C3)cc(OC)c1CN(C)C (stereo not drawn) [Compound D291]	10 to 100	–	–
COc1cc(-c2cn(C)c(=O)c3c2CCN(C(=O)NCCOCCOCCNc2cccc4nc(C)n(C5CCC(=O)NC5=O)c(=O)c24)C3)cc(OC)c1CN(C)C (stereo not drawn) [Compound D292]	100 to 1000	–	–
COc1cc(-c2cn(C)c(=O)c3c2CN(C)CC3)cc(OC)c1CN1CC(CN2CCC3(CC2)CN(c2ccc4c(c2)C(=O)N(C2CCC(=O)NC2=O)C4)C3)C1 (stereo not drawn) [Compound D293]	–	–	DC50 (SYO-1 cells expressing 3×FLAG-NLuc-BRD9, 6 hours incubation, top dose 1 μM, read-out: SYO1 BRD9-NanoLuc degradation IC50): 100 to 1000 nM
CNC(=O)N1CCc2c(c(-c3cc(OC)c(CN(C)CC45CC(C(=O)NCCCCCOc6cccc7c6C(=O)N(C6CCC(=O)NC6=O)C7=O)(C4)C5)c(OC)c3)cn(C)c2=O)C1 (stereo not drawn) [Compound D294]	≥ 1000	–	–
CNC(=O)N1CCc2c(c(-c3cc(OC)c(CN4CC5CN(C(=O)CCOCCOc6ccc7c(c6)C(=O)N(C6CCC(=O)NC6=O)C7=O)CCC54)c(OC)c3)cn(C)c2=O)C1 (stereo not drawn) [Compound D295]	100 to 1000	–	–
CNC(=O)N1CCc2c(c(-c3cc(OC)c(CN(C)CCOCCN4CCN(c5ccc6c(c5)C(=O)N(C5CCC(=O)NC5=O)C6=O)CC4)c(OC)c3)cn(C)c2=O)C1 (stereo not drawn) [Compound D296]	≥ 1000	–	–

Compound	IC50 [1] [nM]	IC50 (SYO-1 cells, 6 hours, Table 6C) [nM]	further results
CNC(=O)N1CCc2c(c(-c3cc(OC)c(CN(C)CC(=O)NCCOCCOc4cccc5c4C(=O)N(C4CCC(=O)NC4=O)C5=O)c(OC)c3)cn(C)c2=O)C1 (stereo not drawn) [Compound D297]	≥ 1000	–	–
COc1cc(-c2cn(C)c(=O)c3c2CN(C(=O)N(C)C)CC3)cc(OC)c1CN(C)CCOCCN1CCN(c2ccc3c(c2)C(=O)N(C2CCC(=O)NC2=O)C3=O)CC1 (stereo not drawn) [Compound D298]	≥ 1000	–	–
CNC(=O)N1Cc2c(-c3cc(OC)c(CN4CCC(CCN5CCN(c6ccc7c(c6)C(=O)N(C6CCC(=O)NC6=O)C7=O)CC5)CC4)c(OC)c3)cn(C)c(=O)c2C1 (stereo not drawn) [Compound D299]	< 10	–	–
CNC(=O)N1Cc2c(-c3cc(OC)c(CN4CCC5(CC4)CN(c4ccc6c(c4)C(=O)N([C@@H]4CCC(=O)NC4=O)C6=O)C5)c(OC)c3)cn(C)c(=O)c2C1 [Compound D300]	< 10	–	–
COc1cc(-c2cn(C)c(=O)c3c2CCCC3)cc(OC)c1CN1CC(CN2CCC3(CC2)CN(c2ccc4c(c2)C(=O)N(C2CCC(=O)NC2=O)C4)C3)C1 (stereo not drawn) [Compound D301]	< 10	–	–
COc1cc(-c2cn(C)c(=O)c3c2COC3)cc(OC)c1CN1CC(CN2CCC3(CC2)CN(c2ccc4c(c2)C(=O)N(C2CCC(=O)NC2=O)C4)C3)C1 (stereo not drawn) [Compound D302]	< 10	–	–
CNC(=O)N1CCc2c(-c3cc(OC)c(C4CN(c5ccc6c(c5)C(=O)N(C5CCC(=O)NC5=O)C6=O)C4)c(OC)c3)cn(C)c(=O)c2C1 (stereo not drawn) [Compound D303]	–	< 10	–
CNC(=O)N1CCc2c(-c3cc(OC)c(CN4CCC5(CN(c6ccc7c(c6)C(=O)N(C6CCC(=O)NC6=O)C7)C5)C(C)C4)c(OC)c3)cn(C)c(=O)c2C1 (stereo not drawn) [Compound D304]	–	< 10	–
CNC(=O)N1CCc2c(-c3cc(OC)c(CN4CCN(CCC5CCN(c6ccc7c(c6)C(=O)N(C6CCC(=O)N(C)C6=O)C7)CC5)CC4)c(OC)c3)cn(C)c(=O)c2C1 (stereo not drawn) [Compound D305]	–	≥ 1000	–
CNC(=O)N1CCc2c(-c3cc(OC)c(CN4CCC5(CN(c6ccc7c(c6)C(=O)N(C6CCC(=O)NC6=O)C7)C5)C(F)(F)C4)c(OC)c3)cn(C)c(=O)c2C1 (stereo not drawn) [Compound D306]	–	< 10	–
COc1cc(-c2cn(C)c(=O)c3c2CCN(C(=O)NCC(F)F)C3)cc(OC)c1CN(C)c1ccc2c(c1)C(=O)N(C1CCC(=O)NC1=O)C2 (stereo not drawn) [Compound D307]	–	< 10	–
CNC(=O)N1CCc2c(-c3cc(OC)c(CN4CCC5(CC4)CN(c4ccc6c(c4)C(=O)N(C4CCC(=O)NC4=O)C6)C5)c(OC)c3)cn(C)c(=O)c2C1 (stereo not drawn) [Compound D308]	–	< 10	–
CNC(=O)N1CCc2c(-c3cc(OC)c(CN4CCN(CCC5CCN(c6ccc7c(c6)C(=O)N(C6CCC(=O)NC6=O)C7)CC5)CC4(C)C)c(OC)c3)cn(C)c(=O)c2C1 (stereo not drawn) [Compound D309]	–	< 10	–
CNC(=O)N1CCc2c(-c3cc(OC)c(CN4CCN(CCC5CCN(c6ccc7c(c6)CN(C6CCC(=O)NC6=O)C7=O)CC5)CC45CC5)c(OC)c3)cn(C)c(=O)c2C1 (stereo not drawn) [Compound D310]	–	< 10	–
COc1cc(-c2cn(C)c(=O)c3c2CCN(C(=O)NCC(F)F)C3)cc(OC)c1CN1CCN(CCC2CCN(c3ccc4c(c3)CN(C3CCC(=O)NC3=O)C4=O)CC2)CC12CC2 (stereo not drawn) [Compound D311]	–	< 10	–

Second part, led by results:

IC50 [1] [nM]	IC50 (SYO-1 cells, 6 hours, Table 6C) [nM]	Compound	further results
–	< 10	COc1cc(-c2cn(C)c(=O)c3c2CCN(C(=O)NCC(F)F)C3)cc(OC)c1CN1CCN(CCC2CCN(c3ccc4c(c3)C(=O)N(C3CCC(=O)NC3=O)C4)CC2)CC12CC2 (stereo not drawn) [Compound D312]	–
–	≥ 1000	COc1cc(-c2cn(C)c(=O)c3c2CCN(C(=O)NCC(F)F)C3)cc(OC)c1CN1CCN(CCC2CCN(c3ccc4c(c3)C(=O)N(C3CCC(=O)NC3=O)C4)CC2)CC1(C)C (stereo not drawn) [Compound D313]	–
–	< 10	CNC(=O)N1CCc2c(-c3cc(OC)c(CN4CCN(CCC5CCN(c6ccc7c(c6)C(=O)N(C6CCC(=O)NC6=O)C7)CC5)CC45CC5)c(OC)c3)cn(C)c(=O)c2C1 (stereo not drawn) [Compound D314]	–
–	< 10	CNC(=O)N1CCc2c(-c3cc(OC)c(CN4CCC(CN5CCC6(CN(c7ccc8c(c7)C(=O)N(C7CCC(=O)NC7=O)C8)C6)C(F)(F)C5)CC4)c(OC)c3)cn(C)c(=O)c2C1 (stereo not drawn) [Compound D315]	–
–	≥ 1000	[2H]C([2H])([2H])n1cc(-c2cc(OC)c(CN3CCN(CCC4CCN(c5ccc6c(c5)C(=O)N(C5CCC(=O)NC5=O)C6)CC4)CC3)c(OC)c2)c2c(c1=O)CN(C(=O)NCC(F)F)CC2 (stereo not drawn) [Compound D316]	–
–	< 10	[2H]C([2H])([2H])n1cc(-c2cc(OC)c(CN3CCN(CCC4CCN(c5ccc6c(c5)CN(C5CCC(=O)NC5=O)C6=O)CC4)CC3)c(OC)c2)c2c(c1=O)CN(C(=O)NCC(F)F)CC2 (stereo not drawn) [Compound D317]	–
–	< 10	[2H]C([2H])([2H])n1cc(-c2cc(OC)c(CN3[C@H](C)CN(CCC4CCN(c5ccc6c(c5)CN(C5CCC(=O)NC5=O)C6=O)CC4)C[C@H]3C)c(OC)c2)c2c(c1=O)CN(C(=O)NC)CC2 (stereo partly drawn) [Compound D318]	–
–	< 10	[2H]C([2H])([2H])n1cc(-c2cc(OC)c(CN3[C@H](C)CN(CCC4CCN(c5ccc6c(c5)C(=O)N(C5CCC(=O)NC5=O)C6)CC4)C[C@H]3C)c(OC)c2)c2c(c1=O)CN(C(=O)NC)CC2 (stereo partly drawn) [Compound D319]	–
–	< 10	COc1cc(-c2cn(C)c(=O)c3c2CCN(C(=O)NCC(F)F)C3)cc(OC)c1CN1CCN(CCC2CCN(c3ccc4c(c3)CN(C3CCC(=O)NC3=O)C4=O)CC2)CC1(C)C (stereo not drawn) [Compound D320]	–
–	< 10	CNC(=O)N1CCc2c(-c3cc(OC)c(CN4CCN(CCC5CCN(c6ccc7c(c6)CN(C6CCC(=O)NC6=O)C7=O)CC5)CC45CCC5)c(OC)c3)cn(C)c(=O)c2C1 (stereo not drawn) [Compound D321]	–
–	< 10	COc1cc(-c2cn(C)c(=O)c3c2CCN(C(=O)NCC(F)F)C3)cc(OC)c1CN1CCN(CCC2CCN(c3ccc4c(c3)CN(C3CCC(=O)NC3=O)C4=O)CC2)CC12CCC2 (stereo not drawn) [Compound D322]	–
–	< 10	[2H]C([2H])([2H])NC(=O)N1CCc2c(-c3cc(OC)c(CN4[C@H](C)CN(CCC5CCN(c6ccc7c(c6)C(=O)N(C6CCC(=O)NC6=O)C7)CC5)C[C@H]4C)c(OC)c3)cn(C)c(=O)c2C1 (stereo partly drawn) [Compound D323]	–
–	< 10	[2H]C([2H])([2H])NC(=O)N1CCc2c(-c3cc(OC)c(CN4[C@H](C)CN(CCC5CCN(c6ccc7c(c6)CN(C6CCC(=O)NC6=O)C7=O)CC5)C[C@H]4C)c(OC)c3)cn(C)c(=O)c2C1 (stereo partly drawn) [Compound D324]	–
–	< 10	CNC(=O)N1CCc2c(-c3cc(OC)c(CN4[C@H](C)CN(CCC5CCN(c6ccc7c(c6)CN(C6CCC(=O)NC6=O)C7=O)CC5)C[C@H]4C)c(OC)c3)cn(C)c(=O)c2C1 (stereo partly drawn) [Compound D325]	–
